Data from patent US12514840B2, “Treatment of idiopathic hypohidrosis” (NATIONAL SKIN CENTRE (SINGAPORE) PTE LTD, priority 2019, dated 2026).

How the values were obtained:
Format in all cases: in vivo, human
[1] = test system: patients with idiopathic hypohidrosis; assay: Treatment of fourteen patients with idiopathic hypohidrosis with oral retinoids (exercise, starch-iodine sweat test, HD-OCT); settings: for patients who responded and were successfully treated: generalised hypohidrosis, three with acitretin (one did not respond)
Procedure: Fourteen patients presenting with idiopathic hypohidrosis underwent monitored exercising on a stationary bicycle for 20 minutes. Their temperature and heart rate were repeatedly measured during the exercise. Subsequently, using a spray gun, starch-iodine powder was sprayed onto the whole body of the patient and the powder coats onto the skin (FIG. 1). The coat of powder on body areas with sweating turned purple, while the powder in areas without sweat remained brown (FIG. 2). This allows the body surface area of anhidrosis to be assessed. Thereafter, the patient rinsed off the powder, which washed off easily with water.
The patients' skin was subsequently imaged using high-definition optical coherence tomography (HD-OCT) non-invasive skin imaging (Skintell, Agfa, Belgium). HD-OCT uses an infrared (1000-1700 nm), interferometric and time-domain imaging technique. Instead of a single pin diode light detector, it uses a two-dimensional imaging array to allow for simultaneous cross-sectional and en face images acquisition. A high lateral resolution of 3 μm is ensured using a technique called continuous focus tracking. The capture of a 3D image (containing 57 million voxels) takes 2-3 seconds and the information acquired can subsequently be digitally analysed.
The fourteen patients suffering from idiopathic hypohidrosis were offered treatment according to the invention.
All of the treated patients were started on an oral dose of isotretinoin or acitretin of between 5 and 20 mg once daily for at least six weeks. If necessary, this dose was adjusted, whether increased because the initial dose was ineffective, or decreased to reduce the expected side effects associated with oral retinoids. All patients responded to a dose of between 10 and 30 mg once daily. This dose was further adjusted as required until symptoms of idiopathic hypohidrosis had resolved. Administration of retinoids was continued to prevent reoccurrence of symptoms.

[2] = test system: patients with idiopathic hypohidrosis; assay: Long term retrospective assessment of 28 patients with idiopathic hypohidrosis, 20 treated with retinoids
Procedure: A retrospective analysis on patients with isolated hypohidrosis who attended a neuro-dermatology clinic over a 5.75-year period was conducted. All patients routinely underwent standardized exercising and whole-body starch-iodine test, followed by non-invasive HD-OCT skin imaging, and their treatment history was analysed.
28 patients with idiopathic hypohidrosis were included in the study, 14 of whom were affected in a generalised manner (with 70% and more of body surface affected) and 14 in a partial manner. 14 of the 28 patients were those which were the subject of Example 1, and 14 patients were new.

[3] = test system: sweat apparatus (glands or ducts) of patients with idiopathic hypohidrosis; assay: Injection of Carbachol to locate the pathology in idiopathic hypohidrosis (induction of sweating)
[4] = five treated with isotretinoin, oral once daily
[5] = one patient successfully treated with isotretinoin

Compound	patients who responded and were successfully treated [1, 4]	HD-OCT imaging of lesions after treatment [1, 5]	sweat test after treatment [1, 5]	patients who responded to treatment and were successfully treated ([1]; partial hypohidrosis, five treated with isotretinoin, oral once daily)	patients recovered well enough to return to their pre-morbid sporting activities ([2]; seventeen patients (7 generalised and 10 partial), oral) [%]	induction of sweating ([3]; injection at regions where patients could sweat)	induction of sweating ([3]; injection in areas where patients cannot sweat)	patients recovered ([2]; of three patients treated, one did not respond) [patients]
CC1=C(/C=C/C(C)=C/C=C/C(C)=C\C(=O)O)C(C)(C)CCC1 [isotretinoin, 13-cis-retinoic acid]	All five	no longer visible	normalised extent of sweating	All five	100	–	–	–
C[N+](C)(C)CCOC(N)=O [Carbachol]	–	–	–	–	–	induced sweating	could not do so	–
COc1cc(C)c(/C=C/C(C)=C/C=C/C(C)=C/C(=O)O)c(C)c1C [acitretin]	Two of the three	–	–	–	–	–	–	2
